What was measured:
Test in all cases: relative viability (nuclei count vs DMSO), 5 days (fraction); higher = more cells survive
201T = tested on: 201T
Outline: (§1)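 Relative viability was taken as the ratio of nuclei in treated wells to nuclei in vehicle wells. Lung cancer cell lines in 1536-well plates received compounds by pin tool one day after seeding, either one drug alone or a fixed anchor-drug dose plus five library-drug doses (not always all listed) in √10 steps. Nuclei were counted on 4× images after 5 days of treatment, and values are medians of duplicate plates.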

BEN = tested on: BEN
Outline: as §1

COR-L 105 = tested on: COR-L 105
Outline: as §1

EKVX = tested on: EKVX
Outline: as §1

EPLC-272H = tested on: EPLC-272H
Outline: as §1

H3255 = tested on: H3255
Outline: as §1

HCC-44 = tested on: HCC-44
Outline: as §1

HCC-827 = tested on: HCC-827
Outline: as §1

HOP-62 = tested on: HOP-62
Outline: as §1

LCLC-97TM1 = tested on: LCLC-97TM1
Outline: as §1

LOU-NH91 = tested on: LOU-NH91
Outline: as §1

LU99A = tested on: LU99A
Outline: as §1

NCI-H1395 = tested on: NCI-H1395
Outline: as §1

NCI-H1437 = tested on: NCI-H1437
Outline: as §1

NCI-H1666 = tested on: NCI-H1666
Outline: as §1

NCI-H1975 = tested on: NCI-H1975
Outline: as §1

NCI-H2085 = tested on: NCI-H2085
Outline: as §1

NCI-H2087 = tested on: NCI-H2087
Outline: as §1

NCI-H2342 = tested on: NCI-H2342
Outline: as §1

NCI-H358 = tested on: NCI-H358
Outline: as §1

NCI-H647 = tested on: NCI-H647
Outline: as §1

PC-3 [JPC-3] = tested on: PC-3 [JPC-3]
Outline: as §1

SW 1573 = tested on: SW 1573
Outline: as §1

O=C(O)c1ccc(-c2c[nH]c3ncc(-c4ccccc4)cc23)cc1C1CCCC1 + N=C(N)NC(=N)NCCc1ccccc1 [Phenformin] (partner 250 µM)
relative viability (201T; first compound 0.04 µM): 0.477 | relative viability (201T; first compound 0.1265 µM): 0.45 | relative viability (201T; first compound 0.4 µM): 0.456 | relative viability (201T; first compound 1.265 µM): 0.437 | relative viability (BEN; first compound 0.04 µM): 0.274 | relative viability (BEN; first compound 0.1265 µM): 0.283 | relative viability (BEN; first compound 0.4 µM): 0.247 | relative viability (BEN; first compound 1.265 µM): 0.246 | relative viability (COR-L 105; first compound 0.04 µM): 0.485 | relative viability (COR-L 105; first compound 0.1265 µM): 0.492 | relative viability (COR-L 105; first compound 0.4 µM): 0.489 | relative viability (COR-L 105; first compound 1.265 µM): 0.446 | relative viability (EKVX; first compound 0.04 µM): 0.249 | relative viability (EKVX; first compound 0.1265 µM): 0.225 | relative viability (EKVX; first compound 0.4 µM): 0.245 | relative viability (EKVX; first compound 1.265 µM): 0.219 | relative viability (EPLC-272H; first compound 0.04 µM): 0.357 | relative viability (EPLC-272H; first compound 0.1265 µM): 0.295 | relative viability (EPLC-272H; first compound 0.4 µM): 0.356 | relative viability (EPLC-272H; first compound 1.265 µM): 0.328 | relative viability (H3255; first compound 0.04 µM): 0.343 | relative viability (H3255; first compound 0.1265 µM): 0.354 | relative viability (H3255; first compound 0.4 µM): 0.39 | relative viability (H3255; first compound 1.265 µM): 0.372 | relative viability (HCC-44; first compound 0.04 µM): 0.198 | relative viability (HCC-44; first compound 0.1265 µM): 0.295 | relative viability (HCC-44; first compound 0.4 µM): 0.224 | relative viability (HCC-44; first compound 1.265 µM): 0.141 | relative viability (HCC-827; first compound 0.04 µM): 0.406 | relative viability (HCC-827; first compound 0.1265 µM): 0.397 | relative viability (HCC-827; first compound 0.4 µM): 0.43 | relative viability (HCC-827; first compound 1.265 µM): 0.386 | relative viability (HOP-62; first compound 0.04 µM): 0.699 | relative viability (HOP-62; first compound 0.1265 µM): 0.669 | relative viability (HOP-62; first compound 0.4 µM): 0.611 | relative viability (HOP-62; first compound 1.265 µM): 0.595 | relative viability (LCLC-97TM1; first compound 0.04 µM): 0.475 | relative viability (LCLC-97TM1; first compound 0.1265 µM): 0.435 | relative viability (LCLC-97TM1; first compound 0.4 µM): 0.5 | relative viability (LCLC-97TM1; first compound 1.265 µM): 0.399 | relative viability (LOU-NH91; first compound 0.04 µM): 0.73 | relative viability (LOU-NH91; first compound 0.1265 µM): 0.885 | relative viability (LOU-NH91; first compound 0.4 µM): 0.799 | relative viability (LOU-NH91; first compound 1.265 µM): 0.751 | relative viability (LU99A; first compound 0.04 µM): 0.961 | relative viability (LU99A; first compound 0.1265 µM): 0.784 | relative viability (LU99A; first compound 0.4 µM): 0.865 | relative viability (LU99A; first compound 1.265 µM): 0.606 | relative viability (NCI-H1395; first compound 0.04 µM): 0.452 | relative viability (NCI-H1395; first compound 0.1265 µM): 0.44 | relative viability (NCI-H1395; first compound 0.4 µM): 0.413 | relative viability (NCI-H1395; first compound 1.265 µM): 0.414 | relative viability (NCI-H1437; first compound 0.04 µM): 0.295 | relative viability (NCI-H1437; first compound 0.1265 µM): 0.298 | relative viability (NCI-H1437; first compound 0.4 µM): 0.319 | relative viability (NCI-H1437; first compound 1.265 µM): 0.202 | relative viability (NCI-H1666; first compound 0.04 µM): 0.579 | relative viability (NCI-H1666; first compound 0.1265 µM): 0.552 | relative viability (NCI-H1666; first compound 0.4 µM): 0.508 | relative viability (NCI-H1666; first compound 1.265 µM): 0.363 | relative viability (NCI-H1975; first compound 0.04 µM): 0.41 | relative viability (NCI-H1975; first compound 0.1265 µM): 0.423 | relative viability (NCI-H1975; first compound 0.4 µM): 0.388 | relative viability (NCI-H1975; first compound 1.265 µM): 0.298 | relative viability (NCI-H2085; first compound 0.04 µM): 0.84 | relative viability (NCI-H2085; first compound 0.1265 µM): 0.897 | relative viability (NCI-H2085; first compound 0.4 µM): 0.688 | relative viability (NCI-H2085; first compound 1.265 µM): 0.595 | relative viability (NCI-H2087; first compound 0.04 µM): 0.472 | relative viability (NCI-H2087; first compound 0.1265 µM): 0.461 | relative viability (NCI-H2087; first compound 0.4 µM): 0.397 | relative viability (NCI-H2087; first compound 1.265 µM): 0.393 | relative viability (NCI-H2342; first compound 0.04 µM): 0.512 | relative viability (NCI-H2342; first compound 0.1265 µM): 0.693 | relative viability (NCI-H2342; first compound 0.4 µM): 0.623 | relative viability (NCI-H2342; first compound 1.265 µM): 0.491 | relative viability (NCI-H358; first compound 0.04 µM): 0.347 | relative viability (NCI-H358; first compound 0.1265 µM): 0.379 | relative viability (NCI-H358; first compound 0.4 µM): 0.292 | relative viability (NCI-H358; first compound 1.265 µM): 0.124 | relative viability (NCI-H647; first compound 0.04 µM): 0.611 | relative viability (NCI-H647; first compound 0.1265 µM): 0.598 | relative viability (NCI-H647; first compound 0.4 µM): 0.478 | relative viability (NCI-H647; first compound 1.265 µM): 0.38 | relative viability (PC-3 [JPC-3]; first compound 0.04 µM): 0.475 | relative viability (PC-3 [JPC-3]; first compound 0.1265 µM): 0.501 | relative viability (PC-3 [JPC-3]; first compound 0.4 µM): 0.468 | relative viability (PC-3 [JPC-3]; first compound 1.265 µM): 0.436 | relative viability (SW 1573; first compound 0.04 µM): 0.38 | relative viability (SW 1573; first compound 0.1265 µM): 0.35 | relative viability (SW 1573; first compound 0.4 µM): 0.276 | relative viability (SW 1573; first compound 1.265 µM): 0.299
